Data on 2 compounds can be found in patent US20230404989A1, “GRK2 INHIBITION BY PAROXETINE AMELIORATES OSTEOARTHRITIS” (THE PENN STATE RESEARCH FOUNDATION, priority 2020, published 2023).

Experiment [1] relates to Gas activity (cAMP content in cartilage). The experiment in a line: cAMP assay in tibial articular cartilage of drug-treated DMM mice. The experiment is classed as in vivo, mouse. As to the method: Drug treatment studies: In twelve-week old male wild type C57BL/6 mice that received DMM surgeries, vehicle (PBS), paroxetine (5 mg/kg/day), fluoxetine (5 mg/kg/day), gallein (10 mg/kg/day) or indomethacin (2.5 mg/kg/day) were administered daily by ip injection. Drug treatment was initiated 8 weeks following DMM to determine the role of GRK2 signaling in the progression of OA. Short term drug treatment study: To evaluate the acute effect of drug treatments, GRK2^f/f mice received sham or DMM surgery followed by treatment with vehicle, paroxetine, gallein, fluoxetine, or indomethacin with the doses indicated above for 1 week beginning at 8 weeks post DMM. All mice were sacrificed 9 weeks post DMM, 21 weeks of age, for analysis of OA progression. Gas activity was measured by quantifying cAMP content in cartilage pooled from 3 mice. Tibial cartilage was dissected out and snap frozen in liquid Nitrogen. As positive control, tibial cartilage obtained from normal mice was treated with 0.5 mM 3-isobutyl-1-methylxanthine (IBMX) for 30 minutes, followed by 0.1 mM Forskolin for 15 minutes, then snap frozen in liquid Nitrogen. For human cartilage cAMP content, 70 mg frozen cartilage were used. Frozen cartilage was pulverized using 500 μL lysis buffer as we have previously described (H. K. Le Bleu, Anal Biochem, 518, 134-138 (2017)). cAMP content was quantified using the Cyclic AMP XP Assay kit (Cell Signaling, #4339) and following manufacturer's protocol, with 0.5 mM IBMX added to the lysis buffer to prevent phosphodiesterase mediated cAMP degradation during the extraction process. cAMP levels in different groups were normalized to that of sham mice or the vehicle treated human cartilage.

The test system of experiment [2] is human OA cartilage. The experiment in a line: Ex vivo cultured human OA osteochondral plugs: cAMP assay. The experiment is classed as cell-based. As to conditions: paroxetine 5 μM or gallein 10 μM, 48 hrs, versus vehicle. The source says:
An Institutional Review Board-approved protocol was executed to collect discarded de-identified cartilage from patients. For the experiment described in FIG. 3A, we obtained acutely injured human cartilage (from patients undergoing arthroscopic surgery 4 weeks following meniscal injury, N=6) and OA cartilage (from patients undergoing arthroplasty, N=6). Normal controls were obtained from amputees' knees (N=6). Cartilage was fixed in formalin then processed and embedded in paraffin, 5-μm sections were used for immunofluorescence (IF) staining. For the experiment described in FIG. 7, OA osteochondral tissue was collected from patients undergoing total knee arthroplasty. Osteochondral plugs (8-mm diameter) were obtained and bone was flushed with saline solution to remove all bone marrow and blood cells. […] Gas activity was measured by quantifying cAMP content in cartilage pooled from 3 mice. […] Frozen cartilage was pulverized using 500 μL lysis buffer as we have previously described (H. K. Le Bleu, Anal Biochem, 518, 134-138 (2017)). cAMP content was quantified using the Cyclic AMP XP Assay kit (Cell Signaling, #4339) and following manufacturer's protocol, with 0.5 mM IBMX added to the lysis buffer to prevent phosphodiesterase mediated cAMP degradation during the extraction process. cAMP levels in different groups were normalized to that of sham mice or the vehicle treated human cartilage.
(Cyclic AMP is a second messenger, typically raised through Gs and lowered through Gi signalling.)

The subject of experiment [3] is ADAMTS5, MMP13, Aggrecan Neo, aggrecan in tibial articular cartilage. The experiment in a line: IF staining of tibial articular cartilage of drug-treated DMM mice. The experiment is classed as in vivo, mouse. As to conditions: for aggrecan expression (IF staining, whole tibial articular surface): daily ip week 8 to 12, versus vehicle; for ADAMTS5 expression (IF staining, uncalcified cartilage) / Aggrecan Neo expression (IF staining, uncalcified cartilage) / MMP13 expression (IF staining, uncalcified cartilage): daily treatment week 8 to 12. As to the method:
Drug treatment studies: In twelve-week old male wild type C57BL/6 mice that received DMM surgeries, vehicle (PBS), paroxetine (5 mg/kg/day), fluoxetine (5 mg/kg/day), gallein (10 mg/kg/day) or indomethacin (2.5 mg/kg/day) were administered daily by ip injection. Drug treatment was initiated 8 weeks following DMM to determine the role of GRK2 signaling in the progression of OA. Paraffin sections were deparaffinized in three changes of xylene for five minutes each, rehydrated in ethanol (two changes of 100% ethanol, followed by two changes of 95% ethanol, followed by one change of 70% ethanol) and rinsed twice in deionized water. Antigen retrieval was performed for 30 minutes at 37° C. using 0.4% pepsin (Sigma P-7000) in 0.1M hydrochloric acid (HCl) and was followed by permeabilization for 30 minutes at room temperature using Triton X in tris buffered saline (TBS). Sections were then blocked for 1 hour at room temperature in 10% normal goat serum in 1×TBS. Tissue sections were incubated overnight at 4° C. with the rabbit anti-mouse primary antibody specific for the target protein (detailed in Table 1). Following three 5-minute washes in 1×TBS, slides were incubated for 1 hour at room temperature with biotinylated goat anti-rabbit secondary antibody (Life Technologies, Waltham, MA, USA), washed again with 3 changes of 1×TBS and incubated for 1 hour at room temperature with Alexa fluor 647 Streptavidin. Finally, slides were washed with three changes of 1×TBS for 5 minutes each, followed by one wash with 1×TBS with tween 20 (TBST), and a final 5-minute wash in 1×TBS. Mounting and nuclear staining was performed using ProLong™ Gold antifade reagent with DAPI (Invitrogen, Waltham, MA, USA).

The mark [4] stands for this setting: 7 days of drug treatment from 8 weeks post-DMM.

As to `O=C1OC2(c3ccccc31)c1ccc(O)c(O)c1Oc1c2ccc(O)c1O` [gallein], the “cAMP levels in the articular cartilage” value in experiment [1] (setting [4]) is recorded as “restored”. For the same compound, in experiment [1] (daily ip week 8 to 12), the “cAMP levels in the articular cartilage” value is recorded as “restored”. Further, in experiment [2], the cAMP production entry was “significant increase”. For the same compound, in experiment [3], the “aggrecan expression (IF staining, whole tibial articular surface)” value is on record as “enhanced”; the “ADAMTS5 expression (IF staining, uncalcified cartilage)” value is reported as “significantly decreased”; the “Aggrecan Neo expression (IF staining, uncalcified cartilage)” value was “significantly decreased”; the “MMP13 expression (IF staining, uncalcified cartilage)” value is listed as “significantly decreased”.
`Fc1ccc([C@@H]2CCNC[C@H]2COc2ccc3c(c2)OCO3)cc1` [paroxetine]: the “cAMP levels in the articular cartilage” value in experiment [1] (setting [4]) is “restored”. Also, in experiment [1] (daily ip week 8 to 12), the “cAMP levels in the articular cartilage” value is “restored”. The cAMP production result in experiment [2] is reported as “significant increase”. Moreover, in experiment [3], the “aggrecan expression (IF staining, whole tibial articular surface)” value is “enhanced”; the “ADAMTS5 expression (IF staining, uncalcified cartilage)” value is reported as “significantly decreased”; the “Aggrecan Neo expression (IF staining, uncalcified cartilage)” value is listed as “significantly decreased”; the “MMP13 expression (IF staining, uncalcified cartilage)” value is reported as “significantly decreased”.
